Data on 2 substances can be found in paper PMC7060258 (Scientific Reports, 2020).

The test system of one experiment is rKv1.6. As to the kind of experiment: Two-electrode voltage clamp, rKv1.6 in X. laevis oocytes. The format is cell-based. To be noted: 10 μM, 18–22 °C, n ≥ 3. How it is done: (§1) For the expression of the voltage-gated potassium channels (rKv1.1, rKv1.2, hKv1.3, rKv1.4, rKv1.5, rKv1.6, Shaker IR and hERG) in X. laevis oocytes, the linearized plasmids were transcribed using the T7 or SP6 mMESSAGE-mMACHINE transcription kit (Ambion, USA). The harvesting of stage V–VI oocytes from an anaesthetized female X. laevis frog was previously described. Oocytes were injected with 50 nl of cRNA at a concentration of 1 ng/nl using a micro-injector (Drummond Scientific, USA). The oocytes were incubated in a solution containing (in mM): NaCl, 96; KCl, 2; CaCl2, 1.8; MgCl2, 2; HEPES, 5 (pH 7.4), supplemented with 50 mg/l gentamycin sulfate.
(§2) Two-electrode voltage-clamp recordings were performed at room temperature (18–22 °C) using a Geneclamp 500 amplifier (Molecular Devices, USA) controlled by a pClamp data acquisition system (Axon Instruments, USA), as described in[47]. Whole cell currents from oocytes were recorded 1–4 days after injection. Bath solution composition was ND96 (in mM): NaCl, 96; KCl, 2; CaCl2, 1.8; MgCl2, 2 and HEPES, 5 (pH 7.4). Voltage and current electrodes were filled with 3 M KCl. The resistances of both electrodes were kept between 0.7 and 1.5 MΩ. […] All data were analysed using pClamp Clampfit 10.0 (Molecular Devices, Downingtown, PA, USA) and Origin 7.5 software (Originlab, Northampton, MA, USA).
In general terms: In two-electrode clamp one electrode senses voltage and the other passes current.

Experiment [1] has as its system α-chymotrypsin. As to the kind of experiment: Thermodynamic parameters of complexes with α-chymotrypsin. The note with it: complex with α-chymotrypsin, SPR. It is filed as binding. How it is done: The magnitudes of free energy change (∆G) of the complexes differed slightly from the same complexes of HCRG1 and HCRG2 and were lower than for the InhVJ ones.
(§3) The study of the interaction of serine proteinases with rHCIQ2c1 and rHCIQ4c7 was performed on SPR biosensor Biacore 3000 (GE Healthcare, USA) running under the program “Biacore 3000 Control Software v.1.0”. The evaluation of data was carried out using “Biacore Evaluation v.4.1”. Peptides were covalent immobilized on carboxymethylated surface of the Biacore CM4 sensor chip (GE Healthcare, USA) activated by EDC/NHS (N-hydroxysuccinimide/1-ethyl-3-(3-dimethylaminopropyl)carbodiimide hydrochloride) mixture by the injection of peptide solution (100 µg/ml) in 10 mM sodium acetate (pH 5.5) during 10 min with flow rate 5 µl/min. Quantities of immobilized peptides were 970 RU (resonance units, 1 RU corresponds 1 pg peptide) for rHCIQ2c1 and 460 RU for rHCIQ4c7. In all of the experiments, the flow cell 1 (Fc1) without the immobilized polypeptides was considered as the reference cell for the correction of the signal responses. HBS (HEPES buffered saline-NaCl): 0.15 M NaCl, 0.01 M HEPES, pH 7.4 (cat. no. BR-1003-69, GE Healthcare, USA) was used as the running buffer for the SPR assays. Protease solutions at concentrations from 1 nM to 5 μM were passed through measuring and control biosensor cells at 25 °C during 5 min with a flow rate 5 µl/min. Further complex breakdown was recorded during at most 10 min. After each cycle of SPR measurement, the sensing surface was regenerated by the injection of 50 mM NaOH for 0.5 min at a flow rate of 50 μl/min. Changes in Gibbs free energy (ΔG) at 25 °C were calculated by the following equation:1 ΔG=RTlnKD, where KD is the dissociation constant. Changes in enthalpy (ΔH) and entropic term (−TΔS) were calculated from the linear equation:2 ΔG=ΔH−TΔS, using the liner approximation of temperature dependence of ΔG (Van’t Hoff diagram).

The next experiment concerns rKv1.5. As to the kind of experiment: Two-electrode voltage clamp, rKv1.5 in X. laevis oocytes. It is filed as cell-based. To be noted: 10 μM, 18–22 °C, n ≥ 3. How it is done: as §1, §2
Experiment [2] deals with murine neuroblastoma Neuro2a cells. As to the kind of experiment: Intracellular ROS formation level (H2DCF-DA). The format is cell-based. How it is done: We estimated whether rHCIQ2c1 is able to inhibit reactive oxygen species (ROS) production. After incubation of Neuro2a cells with rHCIQ2c1 (up to 10 µM) and 6-OHDA (25 µM), ROS content was evaluated by measurement of dichlorofluorescin intensity.
The intracellular ROS level was detected using 2,7-dichlordihydrofluorescein diacetate (H2DCF-DA) solution (Molecular Probes, final concentration 10 µM). In this study, mouse neuroblastoma Neuro2a cells seeded on 96-well plates were washed twice with serum-free DMEM and thereafter incubated for 1 h in serum-free MEM medium in the presence of compounds in concentrations from 10 pM to 10 µM. Cell were treated with 6-OHDA (25 μM) for 30 min at 37 °C with 5% CO2. Followed by treatment with 6-OHDA, the cells were washed once with PBS. After washing with serum-free DMEM medium, the cells were loaded with H2DCF-DA for 30 min. The intensity of dichlorofluorescin fluorescence was measured with plate reader PHERAstar FS (BMG Labtech, Germany) at λex = 485 nm and λem = 518 nm. The cytoprotective effect of peptides and the increase in cell viability under their action was calculated as a percentage, taking the cell viability treated with 6-OHDA as 100%.

The next experiment has as its system rKv1.2. Briefly: Two-electrode voltage clamp, rKv1.2 in X. laevis oocytes. The format is cell-based. The note with it: 10 μM, 18–22 °C, n ≥ 3. How it is done: as §1, §2
A further experiment relates to trypsin. As to the kind of experiment: SPR interaction with trypsin. The format is binding. To be noted: for SPR binding to trypsin (in words): peptide immobilized on CM4 chip; for ka, association rate constant / kd, dissociation rate constant: protease 1 nM to 5 μM; for Kd: read-out: KD, dissociation constant. How it is done:
(§4) The interaction of the peptides with serine proteinases (trypsin, α-chymotrypsin, human neutrophil elastase, pancreatic kallikrein and cathepsin G) was studied using the surface plasmon resonance (SPR) method. The peptides were immobilized on a CM4 sensor chip. […] Kinetic parameters were calculated at 25 °C. Obtained data indicated the formation of tight complexes and eliminated non-specific binding (Table 2).
as §3
(In SPR one partner is held on a chip, and binding of the other changes the refractive index at the surface.)

Experiment [3] has as its system α-chymotrypsin. As to the kind of experiment: SPR interaction with α-chymotrypsin. It is filed as binding. The note with it: for SPR binding to α-chymotrypsin (in words): peptide immobilized on CM4 chip. As to the method:
as §4, §3

The mark [4] stands for this setting: trypsin, SPR Biacore 3000, peptide immobilized on CM4 chip, HBS pH 7.4, 25 °C.
Setting [5] is: α-chymotrypsin, SPR Biacore 3000, peptide immobilized on CM4 chip, HBS pH 7.4, 25 °C, protease 1 nM to 5 μM.

By Kd is commonly meant a measure of binding affinity in units of concentration.

No end group written: not given here.

Regarding “rHCIQ2c1: recombinant Kunitz-peptide of Heteractis crispa, most prevalent isoform, mature peptide 58 aa, expressed in E. coli (IQGNICSEPKKVGRCRGSFPRFYFDSETGKCTPFIYGGCGGNGNNFETLHACRAICRA; ends and bridges not checked; cysteine pairing not given here)”, in the experiment on rKv1.6, the “Activity on Kv1.6” value is reported as “neither 10 μM of rHCIQ2c1 nor rHCIQ4c7 exerted any activity on the Kv channels”. In the experiment on α-chymotrypsin [1] (10–40 °С, Van't Hoff diagram), the “T∆S, entropic term” value turned out to be 15.12 kcal/mol and the “∆H, enthalpy change” value stood at 4.68 kcal/mol. In addition, the “∆G, Gibbs energy change” value in the experiment on α-chymotrypsin [1] (25 °C, ΔG=RTlnKD) is on record as “–43.70 kJ/mol”. Further, the “Activity on Kv1.5” value in the experiment on rKv1.5 is recorded as “neither 10 μM of rHCIQ2c1 nor rHCIQ4c7 exerted any activity on the Kv channels”. The “Reduction of ROS production” value in experiment [2] (0.001–0.01 µM peptide, pretreatment 1 h, 6-OHDA 25 µM 30 min, dichlorofluorescin fluorescence) is 34%. Moreover, the “Concentration dependence of ROS level” value in experiment [2] (up to 10 µM peptide, 6-OHDA 25 µM) is “An increase in ROS formation when the concentration of rHCIQ2c1 increases from 0.01 to 1 µM, and its decrease again at 10 µM”. In the experiment with rKv1.2, the “Activity on Kv1.2” value was “neither 10 μM of rHCIQ2c1 nor rHCIQ4c7 exerted any activity on the Kv channels”. The “SPR binding to trypsin (in words)” value in the experiment with trypsin (SPR) is reported as “specifically binds to all target proteinases”. Also, in the experiment with trypsin (setting [4]), the “ka, association rate constant” value was 20500 s/M; the “kd, dissociation rate constant” value was 0.00817 s⁻¹; the Kd is 0.251 nM. Moreover, in the experiment with α-chymotrypsin [3], the “SPR binding to α-chymotrypsin (in words)” value is “specifically binds to all target proteinases”. Also, in the experiment with α-chymotrypsin [3] (α-chymotrypsin, SPR Biacore 3000, peptide immobilized on CM4 chip, HBS pH 7.4, 25 °C), the “KA, association constant” value turned out to be 1.03e+07 M⁻¹. Also, in the experiment on α-chymotrypsin [3] (setting [5]), the “ka, association rate constant” value came out at 76900 s/M and the “kd, dissociation rate constant” value turned out to be 0.00749 s⁻¹. For the same substance, the Kd on α-chymotrypsin [3] (α-chymotrypsin, SPR Biacore 3000, peptide immobilized on CM4 chip, HBS pH 7.4, 25 °C, read-out: KD, dissociation constant) was determined as 97.4 nM.

Regarding “rHCIQ4c7: recombinant Kunitz-peptide of Heteractis crispa, isoform with the rare substitution Gly17Glu”, the “Activity on Kv1.6” value in the experiment on rKv1.6 is given as “neither 10 μM of rHCIQ2c1 nor rHCIQ4c7 exerted any activity on the Kv channels”. The “Activity on Kv1.5” value in the experiment with rKv1.5 was “neither 10 μM of rHCIQ2c1 nor rHCIQ4c7 exerted any activity on the Kv channels”. Besides, in the experiment on rKv1.2, the “Activity on Kv1.2” value is “neither 10 μM of rHCIQ2c1 nor rHCIQ4c7 exerted any activity on the Kv channels”. Also, at trypsin (SPR, 25 °C), the “KD with trypsin relative to rHCIQ2c1” value is recorded as “higher by three orders than for rHCIQ2c1”. For the same substance, the “SPR binding to trypsin (in words)” value in the experiment with trypsin (SPR) is “bounds to trypsin and elastase only”. For the same substance, in the experiment with trypsin (setting [4]), the “KA, association constant” value was determined as 4.83e+06 M⁻¹; the “ka, association rate constant” value stood at 22500 s/M; the “kd, dissociation rate constant” value amounted to 0.00466 s⁻¹; the Kd came to 207 nM. In the experiment with α-chymotrypsin [3], the “SPR binding to α-chymotrypsin (in words)” value is “bounds to trypsin and elastase only”.
